Laboratory results taken from US20210070748A1, “INHIBITORS OF BRUTONS TYROSINE KINASE” (Pharmacyclics LLC, priority 2015, published 2021).
Structures can show the parent of a compound that is named as a salt. Where two headings read alike, the source gives them in different places.

What was measured:
Assay type in all cases: biochemical
LCK = LCK (Homo sapiens, UniProt P06239); experiment: Inhibition of a panel of kinases, in vitro HotSpot kinase assay: LCK; conditions: 1 μM ATP, read-out: LCK (IC50)
JAK3 = target: T1, JAK3 (Homo sapiens, UniProt P52333); experiment: Inhibition of a panel of kinases, in vitro HotSpot kinase assay: JAK3; conditions: 1 μM ATP, read-out: JAK3 (IC50)
T1 sequence (P52333 1-1124): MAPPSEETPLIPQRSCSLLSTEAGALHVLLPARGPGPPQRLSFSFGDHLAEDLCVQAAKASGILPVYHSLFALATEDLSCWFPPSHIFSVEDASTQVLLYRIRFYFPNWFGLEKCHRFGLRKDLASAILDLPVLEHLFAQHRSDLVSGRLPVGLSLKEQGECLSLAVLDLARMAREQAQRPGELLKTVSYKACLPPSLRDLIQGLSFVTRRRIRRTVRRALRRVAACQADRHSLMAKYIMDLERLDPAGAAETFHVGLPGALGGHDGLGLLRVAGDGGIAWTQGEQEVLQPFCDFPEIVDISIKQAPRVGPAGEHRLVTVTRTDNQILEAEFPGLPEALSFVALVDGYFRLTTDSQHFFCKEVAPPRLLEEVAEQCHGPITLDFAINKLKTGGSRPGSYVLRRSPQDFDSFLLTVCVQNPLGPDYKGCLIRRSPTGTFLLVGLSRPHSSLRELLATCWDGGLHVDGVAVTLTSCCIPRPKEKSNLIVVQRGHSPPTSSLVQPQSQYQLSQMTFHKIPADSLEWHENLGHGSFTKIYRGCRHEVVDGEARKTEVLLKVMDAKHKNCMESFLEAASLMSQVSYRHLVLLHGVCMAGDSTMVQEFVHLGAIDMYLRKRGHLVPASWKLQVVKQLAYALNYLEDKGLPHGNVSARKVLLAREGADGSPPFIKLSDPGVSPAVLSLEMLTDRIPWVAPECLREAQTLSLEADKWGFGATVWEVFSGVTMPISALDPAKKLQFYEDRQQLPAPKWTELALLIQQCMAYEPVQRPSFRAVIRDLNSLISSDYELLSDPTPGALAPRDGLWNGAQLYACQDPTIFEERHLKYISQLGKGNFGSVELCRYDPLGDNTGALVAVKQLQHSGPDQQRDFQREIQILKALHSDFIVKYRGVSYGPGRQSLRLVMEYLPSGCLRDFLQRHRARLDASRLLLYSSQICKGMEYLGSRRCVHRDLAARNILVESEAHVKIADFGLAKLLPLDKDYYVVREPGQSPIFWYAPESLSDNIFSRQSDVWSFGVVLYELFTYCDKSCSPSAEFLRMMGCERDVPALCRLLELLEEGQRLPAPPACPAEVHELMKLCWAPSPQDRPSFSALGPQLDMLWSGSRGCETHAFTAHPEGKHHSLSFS

BTK-WT = target: T2, BTK-WT (Homo sapiens, UniProt Q06187); experiment: Btk in vitro inhibitory activity (one of Method A TR-FRET, Method B electrophoretic mobility shift, Method C radiometric filter binding); conditions: read-out: BTK-WT (IC50)
T2 construct: purified from insect cells as a full-length construct containing an N-terminal 6X-His tag; His6 (N); made in house; host or cells: insect cells (baculovirus Sf21 in Method B)
T2 sequence (Q06187 whole entry): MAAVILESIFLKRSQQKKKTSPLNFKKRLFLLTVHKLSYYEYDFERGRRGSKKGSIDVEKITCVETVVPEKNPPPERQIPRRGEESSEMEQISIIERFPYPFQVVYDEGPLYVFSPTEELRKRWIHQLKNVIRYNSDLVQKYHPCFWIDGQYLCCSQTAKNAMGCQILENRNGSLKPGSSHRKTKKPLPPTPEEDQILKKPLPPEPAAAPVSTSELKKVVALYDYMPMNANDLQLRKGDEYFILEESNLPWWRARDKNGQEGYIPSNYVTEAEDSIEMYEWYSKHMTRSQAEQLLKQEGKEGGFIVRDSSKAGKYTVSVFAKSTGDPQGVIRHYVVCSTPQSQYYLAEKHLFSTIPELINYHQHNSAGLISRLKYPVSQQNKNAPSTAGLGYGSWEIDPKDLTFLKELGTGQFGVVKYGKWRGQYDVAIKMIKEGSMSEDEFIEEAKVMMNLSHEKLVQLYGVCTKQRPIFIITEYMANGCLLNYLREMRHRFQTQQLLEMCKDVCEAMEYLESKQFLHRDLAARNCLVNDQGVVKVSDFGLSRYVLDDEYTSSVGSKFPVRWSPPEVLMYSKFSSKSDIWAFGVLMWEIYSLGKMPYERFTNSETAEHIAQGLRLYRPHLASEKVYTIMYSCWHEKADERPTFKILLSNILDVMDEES

Chain of LCK (P06239 whole entry): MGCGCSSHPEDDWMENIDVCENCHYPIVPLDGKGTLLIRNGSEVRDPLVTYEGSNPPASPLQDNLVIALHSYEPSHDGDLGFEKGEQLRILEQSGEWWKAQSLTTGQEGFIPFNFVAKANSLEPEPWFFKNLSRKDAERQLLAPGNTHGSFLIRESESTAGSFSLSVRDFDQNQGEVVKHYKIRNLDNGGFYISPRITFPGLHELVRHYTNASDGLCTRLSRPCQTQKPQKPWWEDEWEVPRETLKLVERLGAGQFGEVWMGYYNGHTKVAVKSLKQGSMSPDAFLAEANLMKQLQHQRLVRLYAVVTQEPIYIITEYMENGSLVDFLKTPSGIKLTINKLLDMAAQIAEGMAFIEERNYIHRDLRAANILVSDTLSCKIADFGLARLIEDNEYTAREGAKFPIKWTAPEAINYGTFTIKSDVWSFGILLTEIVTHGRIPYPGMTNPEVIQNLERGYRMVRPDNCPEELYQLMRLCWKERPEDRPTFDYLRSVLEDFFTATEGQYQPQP

| IC50 (LCK; Table 10, Formula A-I) [nM] | IC50 (JAK3; Table 10, Formula A-I) [nM] | IC50 (BTK-WT; Table 10, Formula A-I) [nM] | IC50 (LCK; Table 12, Formula C-I) [nM] | IC50 (JAK3; Table 12, Formula C-I) [nM] | IC50 (BTK-WT; Table 12, Formula C-I) [nM] | SMILES |
| --- | --- | --- | --- | --- | --- | --- |
| 100 to 1000 | 1000 to 10000 | ≤ 100 | – | – | – | Cc1cccc(C(=O)N[C@@H]2CCCN(c3cnc(C(N)=O)c(Nc4cc(C)ns4)n3)C2)c1 [Example A-33, 3-[(3-methyl-1,2-thiazol-5-yl)amino]-5-[(3R)-3-(3-methylbenzamido)piperidin-1-yl]pyrazine-2-carboxamide] |
| 100 to 1000 | 100 to 1000 | ≤ 100 | – | – | – | CCn1ccc2cc(C(=O)N[C@@H]3CCCN(c4cnc(C(N)=O)c(Nc5cc(C)ns5)n4)C3)ccc21 [Example A-31, N-[(3R)-1-{5-carbamoyl-6-[(3-methyl-1,2-thiazol-5-yl)amino]pyrazin-2-yl}piperidin-3-yl]-1-ethyl-1H-indole-5-carboxamide] |
| – | – | – | 1000 to 10000 | 1000 to 10000 | 100 to 1000 | Cc1cc(Nc2nc(N(C)CC3CCN(C(=O)c4ccc(N(C)C)cc4)CC3)cnc2C(N)=O)sn1 [Example C-16, 5-[({1-[4-(dimethylamino)benzoyl]piperidin-4-yl}methyl)(methyl)amino]-3-[(3-methyl-1,2-thiazol-5-yl)amino]pyrazine-2-carboxamide] |
| 100 to 1000 | 100 to 1000 | ≤ 100 | – | – | – | Cc1cc(Nc2nc(N3CCC[C@@H](NC(=O)c4cccc(F)c4)C3)cnc2C(N)=O)sn1 [Example A-22, 5-[(3R)-3-(3-fluorobenzamido)piperidin-1-yl]-3-[(3-methyl-1,2-thiazol-5-yl)amino]pyrazine-2-carboxamide] |
| < 100 | 100 to 1000 | ≤ 100 | – | – | – | CN(C)c1ccc(C(=O)N[C@@H]2CCCN(c3cnc(C(N)=O)c(Nc4ccc(C5(C)CCN(C6CC6)CC5)cc4)n3)C2)cc1 [Example A-49, 3-{[4-(1-cyclopropyl-4-methylpiperidin-4-yl)phenyl]amino}-5-[(3R)-3-[4-(dimethylamino)benzamido]piperidin-1-yl]pyrazine-2-carboxamide] |
| 100 to 1000 | 100 to 1000 | ≤ 100 | – | – | – | NC(=O)c1ncc(N2CCC[C@@H](NC(=O)N3Cc4ccccc4C3)C2)nc1Nc1ccc(C2CCN(C3CCCC3)CC2)cc1 [Example A-5, N-[(3R)-1-(5-carbamoyl-6-{[4-(1-cyclopentylpiperidin-4-yl)phenyl]amino}pyrazin-2-yl)piperidin-3-yl]-2,3-dihydro-1H-isoindole-2-carboxamide hydrochloride] |
| – | – | – | 1000 to 10000 | 100 to 1000 | 100 to 1000 | Cc1cc(Nc2nc(N[C@@H]3CCCN(C(=O)N(C)C)C3)cnc2C(N)=O)sn1 [Example C-5, 5-([(3R)-1-(dimethylcarbamoyl)piperidin-3-yl]amino)-3-[(3-methyl-1,2-thiazol-5-yl)amino]pyrazine-2-carboxamide hydrochloride] |
| > 10000 | 1000 to 10000 | ≤ 100 | – | – | – | CN(C)c1ccc(C(=O)N[C@@H]2CCCN(c3cnc(C(N)=O)c(Nc4ccc(S(C)(=O)=O)cc4)n3)C2)cc1 [Example A-44, 5-[(3R)-3-[4-(dimethylamino)benzamido]piperidin-1-yl]-3-[(4-methanesulfonylphenyl)amino]pyrazine-2-carboxamide] |
| – | – | – | 100 to 1000 | < 100 | ≤ 100 | C=CC(=O)N1CC[C@H](Nc2nnc(C(N)=O)c(Nc3ccc(C(C)C)cc3)n2)C1 [Example C-31, (S)-3-(1-acryloylpyrrolidin-3-ylamino)-5-(4-isopropylphenylamino)-1,2,4-triazine-6-carboxamide] |
| 100 to 1000 | < 100 | ≤ 100 | – | – | – | Cc1cc(Nc2nc(N3CCC(CNC(=O)c4ccc(N(C)C)cc4)CC3)cnc2C(N)=O)sn1 [Example A-77, 5-[4-({[4-(dimethylamino)phenyl]formamido}methyl)piperidin-1-yl]-3-[(3-methyl-1,2-thiazol-5-yl)amino]pyrazine-2-carboxamide] |
| 1000 to 10000 | 1000 to 10000 | ≤ 100 | – | – | – | Cc1cc(Nc2nc(N3CCC[C@@H](NC(=O)c4ccc(N(C)C)nc4)C3)cnc2C(N)=O)sn1 [Example A-34, 5-[(3R)-3-[6-(dimethylamino)pyridine-3-amido]piperidin-1-yl]-3-[(3-methyl-1,2-thiazol-5-yl)amino]pyrazine-2-carboxamide] |
| – | – | – | 100 to 1000 | 100 to 1000 | ≤ 100 | Cc1cc(Nc2nc(N[C@H]3CCN(C(=O)N(C)C)C3)cnc2C(N)=O)sn1 [Example C-10, 5-{[(3S)-1-(dimethylcarbamoyl)pyrrolidin-3-yl]amino}-3-[(3-methyl-1,2-thiazol-5-yl)amino]pyrazine-2-carboxamide] |
| < 100 | < 100 | ≤ 100 | – | – | – | C=CC(=O)N[C@@H]1CCCN(c2cnc(C(N)=O)c(Nc3ccc(C4CCN(C5CCCC5)CC4)cc3)n2)[C@@H]1C [Example A-85, 5-((2R,3R)-3-acrylamido-2-methylpiperidin-1-yl)-3-(4-(1-cyclopentylpiperidin-4-yl)phenylamino)pyrazine-2-carboxamide] |
| < 100 | < 100 | ≤ 100 | – | – | – | C=CC(=O)N[C@@H]1CCCN(c2cnc(C(N)=O)c(Nc3ccc(C4CCN(C5CCCC5)CC4)cc3)n2)C1 [Example A-84, (R)-5-(3-acrylamidopiperidin-1-yl)-3-(4-(1-cyclopentylpiperidin-4-yl)phenylamino)pyrazine-2-carboxamide] |
| 100 to 1000 | 100 to 1000 | ≤ 100 | – | – | – | Cc1cc(Nc2nc(N3CCC[C@@H](NC(=O)c4ccccc4)C3)cnc2C(N)=O)sn1 [Example A-19, 5-[(3R)-3-benzamidopiperidin-1-yl]-3-[(3-methyl-1,2-thiazol-5-yl)amino]pyrazine-2-carboxamide] |
| > 10000 | 1000 to 10000 | ≤ 100 | – | – | – | CN(C)c1ccc(C(=O)N[C@@H]2CCCN(c3cnc(C(N)=O)c(Nc4ccc5ncccc5c4)n3)C2)cc1 [Example A-46, 5-[(3R)-3-[4-(dimethylamino)benzamido]piperidin-1-yl]-3-[(quinolin-6-yl)amino]pyrazine-2-carboxamide hydrochloride] |
| > 10000 | > 10000 | ≤ 100 | – | – | – | Cc1cc(Nc2nc(N3CCC[C@@H](NC(=O)c4ccc(F)cc4F)C3)cnc2C(N)=O)sn1 [Example A-36, 5-[(3R)-3-(2,4-difluorobenzamido)piperidin-1-yl]-3-[(3-methyl-1,2-thiazol-5-yl)amino]pyrazine-2-carboxamide] |
| – | – | – | 1000 to 10000 | 1000 to 10000 | 100 to 1000 | Cc1cc(Nc2nc(N(C)CC3CCN(C(=O)c4ccccc4)CC3)cnc2C(N)=O)sn1 [Example C-15, 5-{[(1-benzoylpiperidin-4-yl)methyl](methyl)amino}-3-[(3-methyl-1,2-thiazol-5-yl)amino]pyrazine-2-carboxamide] |
| 100 to 1000 | 1000 to 10000 | 100 to 1000 | – | – | – | Cc1cc(Nc2cc(N3CCC[C@@H](NC(=O)c4ccccc4)C3)cnc2C(N)=O)sn1 [Example A-61, 5-[(3R)-3-benzamidopiperidin-1-yl]-3-[(3-methyl-1,2-thiazol-5-yl)amino]pyridine-2-carboxamide] |
| > 10000 | 1000 to 10000 | ≤ 100 | – | – | – | Cc1cc(Nc2nc(N3CCC[C@@H](NC(=O)c4ccc(C5CC5)cc4)C3)cnc2C(N)=O)sn1 [Example A-32, 5-[(3R)-3-(4-cyclopropylbenzamido)piperidin-1-yl]-3-[(3-methyl-1,2-thiazol-5-yl)amino]pyrazine-2-carboxamide] |
| 100 to 1000 | 1000 to 10000 | ≤ 100 | – | – | – | Cc1cc(Nc2nc(N3CCC[C@@H](NC(=O)NC4CCCCC4)C3)cnc2C(N)=O)sn1 [Example A-13, 5-[(3R)-3-[(cyclohexylcarbamoyl)amino]piperidin-1-yl]-3-[(3-methyl-1,2-thiazol-5-yl)amino]pyrazine-2-carboxamide] |
